The values that follow come from publication PMC2695604 (2009).

The experiment addresses isoleucyl-tRNA synthetase (IleRS) (Escherichia coli, UniProt P00956). Briefly: affinity labeling with saturation kinetics of inactivation. Type of experiment: biochemical.

Sequence of isoleucyl-tRNA synthetase (IleRS) (P00956 2-938): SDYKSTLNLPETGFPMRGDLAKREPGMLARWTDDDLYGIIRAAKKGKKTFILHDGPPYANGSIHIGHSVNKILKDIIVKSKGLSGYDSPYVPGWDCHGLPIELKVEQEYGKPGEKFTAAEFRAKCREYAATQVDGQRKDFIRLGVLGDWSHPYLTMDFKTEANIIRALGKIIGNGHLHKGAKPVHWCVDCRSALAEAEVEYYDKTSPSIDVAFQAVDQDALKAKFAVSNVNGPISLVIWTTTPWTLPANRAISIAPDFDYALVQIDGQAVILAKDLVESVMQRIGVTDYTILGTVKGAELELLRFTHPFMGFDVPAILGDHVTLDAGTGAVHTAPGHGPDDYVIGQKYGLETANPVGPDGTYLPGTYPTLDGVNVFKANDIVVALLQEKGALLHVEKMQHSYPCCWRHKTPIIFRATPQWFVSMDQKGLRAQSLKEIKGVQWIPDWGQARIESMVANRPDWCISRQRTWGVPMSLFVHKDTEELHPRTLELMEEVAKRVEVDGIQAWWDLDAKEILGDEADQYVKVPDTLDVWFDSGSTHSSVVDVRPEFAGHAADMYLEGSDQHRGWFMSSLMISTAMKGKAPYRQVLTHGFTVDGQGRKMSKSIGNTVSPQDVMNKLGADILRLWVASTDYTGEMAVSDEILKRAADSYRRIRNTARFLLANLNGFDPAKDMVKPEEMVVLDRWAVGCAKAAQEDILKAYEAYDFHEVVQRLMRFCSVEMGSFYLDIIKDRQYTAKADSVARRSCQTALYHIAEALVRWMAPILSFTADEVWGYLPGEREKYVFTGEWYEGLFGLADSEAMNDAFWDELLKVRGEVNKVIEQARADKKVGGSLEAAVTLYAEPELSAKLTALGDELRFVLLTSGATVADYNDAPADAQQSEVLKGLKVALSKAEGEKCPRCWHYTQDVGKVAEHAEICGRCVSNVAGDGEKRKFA

For `CC[C@H](C)[C@H](N)C(=O)CBr` [IBMK, L-isoleucine bromomethyl ketone], the KI (inactivation) was ~100 µM.
